Measured values reported in patent publication US7473682B2, “Angiogenic peptides and uses thereof” (Ramot at Tel Aviv University Ltd., priority 2003, dated 2009).
Entries after “also recorded” stand apart in the source; their conditions may differ.

Key:
[1] = test system: HUVECs (ECs); test: Tube formation assay, ECs (HUVECs); format: cell-based, human; conditions: for EC tube formation compared to untreated cells: normoxic conditions, 10 ng/ml, matrigel
Protocol: Tube formation assay—ECs from passage 3 or MVECs from passage 4 were harvested with trypsin and incubated for 24 hours in SFM. Twenty-four—well plates were pre-coated with 250 μl of Cultrex Basement Membrane Extract with reduced growth factors (R&D Systems, Minneapolis, Minn., USA). Five hundred microliters of medium containing 10^6 cells were transferred to the coated wells. Synthetic peptides, FGF, YR, QF, or VL were added to ECs, and VEGF, YR, QF, or VL were added to MVECs at 10 ng/ml. Plates were incubated for 24 hours at 37° C. in the presence of 5% CO2. HUVECs and MVECs were photographed under a light microscope at 20 hours and 8 hours, respectively.
Tube formation assay after and under hypoxia treatment—Tube formation assay was performed as described in Example 3, hereinabove, except that the cells were divided to 3 groups: control cells, cells after exposure to hypoxia conditions, and cells on matrigel basement that form tubes under hypoxia treatment.

[2] = test system: mouse ischemic hind limb; test: Mouse ischemic hind limb model, physiological observations (ladder climbing); format: in vivo; set-up: key: 1 = walk and climb ... 4 = walk with difficulty, cannot climb; conditions: mean score of 10 mice, 10 μg; for Physiological score (ability to climb a ladder) Day 1: 1 = walk and climb ... 4 = walk with difficulties and cannot climb, day 1 post operation; for Physiological score (ability to climb a ladder) Day 4 / Physiological score (ability to climb a ladder) Day 7 / Physiological score (ability to climb a ladder) Day 10: scale 1-4; for Physiological score (ability to climb a ladder) Day 4: day 4 post operation; for Physiological score (ability to climb a ladder) Day 7: day 7 post operation; for Physiological score (ability to climb a ladder) Day 10: day 10 post operation
Protocol: (§1) Mouse ischemic hind limb model—Ischemia was created in the mouse left hind limb by ligation of the femoral artery. The right hind limb served as control. A day after the operation each of the peptides was injected into one site close to the ligation and one site distal to the ligation. Each mouse was treated with each of the peptides in a total amount of 10 μg.
Physiological observations—Ischemic mice were evaluated for their ability to climb a ladder on day 1, 4, 7, and 10-post operation. The scoring system was as follows: 1—walk and climb; 2—walk and climb with some difficulty, 3—walk and cannot climb the ladder; 4—walk with difficulties and cannot climb the ladder.

[3] = test system: VEGF-C; test: Real time PCR gene expression in MVECs, VEGF-C; format: cell-based; set-up: key: increased (+); non-increased (−); conditions: 1 ng/ml peptide
Protocol: (§2) Real Time PCR—MVECs from passage 3 were incubated for 24 hours in EBM-MV supplement-free medium (starving media). Following starvation, 1 ng/ml of synthetic peptides LT, QF, SP, TR, YR, and VL and 10 ng/ml of VEGF were added to the plates. Following 1.5 or 6 hours of incubation, total RNA was extracted using TRIsol reagent (Invitrogen Life Technologies, Carlsbad Calif., USA) and 0.8 μg of the extracted RNA was used as a template for reverse transcription (Invitrogen) using random primers (SuperScript III First-Strand Synthesis System for RT-PCR (hvitrogen, Carlsbad Calif., USA) according to the manufacturer's instructions. Resulting cDNAs were subjected to real time PCR amplification using the ABI prism 7000 Sequence Detection System (Applied Biosystems, Foster City, Calif., USA). Oligonucleotide primers were designed using Primer Express Software (Applied Biosystems, Foster City, Calif., USA) according the translated region of VEGF-A (Accession No:NM_003376), VEGF-C (Accession No:NM_005429), KDR (Accession No:NM_002253), FLT-1 (Accession No:NM_002019), HIF-α (Accession No:HSU22431), and GAPDH (Accession No:NM_002046) and are listed in Table 6, hereinbelow. Briefly, a reaction mixture of 20 μl consisting of DDW, oligonucleotide primers (500 nM), cDNA (3 μl), and SYBR Green PCR master kit (Applied Biosystems, Foster City, Calif., USA) was subjected to an amplification program of 15 seconds at 95° C., and 60 seconds at 60° C. for 40 cycles. Results were analyzed using the Sequence Detector Software Version 1 (Applied Biosystenis).
(§3) Peptides effect on gene expression in MVECs—The effect of the synthetic peptides on the expression in MVECs of selected genes (VEGF-A, VEGF-C, KDR, FLT-1 and HIF-1α) related to the VEGF pathway (a major pathway that participated in angiogenic process) was tested. Synthetic peptides were added at 1 ng/ml for 1.5 and 6 hours. After incubation with peptide, RNA was extracted from MVECs and Real Time PCR was performed. Gene expression was calculated as peptide/control (cells without peptide treatment) ratio.

[4] = test system: VEGF-A; test: Real time PCR gene expression in MVECs, VEGF-A; format: cell-based; set-up: key: increased (+); non-increased (−); conditions: 1 ng/ml peptide
Protocol: as §2, §3

[5] = test system: MVECs; test: MVEC migration assay with synthetic peptides; format: cell-based; conditions: 5 hours; for Increase in MVECs migration, peptides as chemoattractants: 10 ng/ml; for MVECs migration, direct activation by peptides: 1 ng/ml
Protocol: MVEC migration was evaluated as described above except that MVECs from passage 3 were incubated in EBM-MV SFM. […] The presence of migratory cells was detected using the fluorescent ELISA reader at 480/520 nm (Fluostar BMG Lab Teck) as described in Example 2, hereinabove. […]

[6] = test system: FLT-1; test: Real time PCR gene expression in MVECs, FLT-1; format: cell-based; set-up: key: increased (+); non-increased (−); conditions: 1 ng/ml peptide
Protocol: as §2, §3

[7] = test system: KDR; test: Real time PCR gene expression in MVECs, KDR; format: cell-based; set-up: key: increased (+); non-increased (−); conditions: 1 ng/ml peptide
Protocol: as §2, §3

[8] = test system: ears of nude mice and Balb/C mice; test: In vivo angiogenesis in a mouse-ear model; conditions: for Number of blood vessels in the ears of injected mice (photographs): 10 μg peptide, subcutaneous injection into ear; for Number of blood vessels: 10 μg/ear, 5 days after inoculation; for Peptide/PBS = ratio between the No. of blood vessels in the peptide-injected ear and in the PBS-injected ear: mouse ears, contralateral ear PBS
Protocol: In Wivo angiogenesis in a mouse-ear model—Ear angiogenesis studies were a modification of an approach described previously (Pettersson, 2000). […] Contralateral ears were injected only with PBS. […] Two days after peptide inoculation, angiogenic effect of peptides could be observed.
Histological sections—Histological sections of the mouse-ears injected with the angiogenic peptides were performed by fixing tissues in 4% buffered formalin. Sections were embedded in paraffin blocks sectioned in 4 μm thick layers and stained with hematoxolin-eosin.

[9] = test system: mouse ischemic hind limb; test: Mouse ischemic hind limb model, blood perfusion (Laser Doppler Imager); format: in vivo; conditions: 14 and 19 days following peptide injection; for The blood perfusion ratio (in percentages) of the ischemic vs. control limbs, Mean: 10 μg
Protocol: as §1
Blood perfusion in ischemic mice—The percent of blood perfusion was measured using a Laser Doppler Imager (PeriMed, Sweden) at 14 and 19 days after peptides injections. The average percent perfusion of each limb was computed and expressed as the ischemic (left)/control (right) blood perfusion ratio.

[10] = test system: HIF-1α; test: Real time PCR gene expression in MVECs, HIF-1α; format: cell-based; set-up: key: increased (+); non-increased (−); conditions: 1 ng/ml peptide
Protocol: as §2, §3

Sequence	EC tube formation compared to untreated cells [1]	Physiological score (ability to climb a ladder) Day 1 [2]	Physiological score (ability to climb a ladder) Day 4 [2]	Physiological score (ability to climb a ladder) Day 7 [2]	Physiological score (ability to climb a ladder) Day 10 [2]	VEGF-C Expression after 1.5 hours [3]	VEGF-C Expression after 6 hours [3]	VEGF-A Expression after 1.5 hours [4]	Increase in MVECs migration, peptides as chemoattractants [5] [fold]	FLT-1 Expression after 1.5 hours [6]	KDR Expression after 1.5 hours [7]	Number of blood vessels in the ears of injected mice (photographs) [8]	Number of blood vessels [8]	Peptide/PBS = ratio between the No. of blood vessels in the peptide-injected ear and in the PBS-injected ear [8]	The blood perfusion ratio (in percentages) of the ischemic vs. control limbs, Mean [9] [percentages]	HIF Expression after 1.5 hours [10]	HIF Expression after 6 hours [10]	VEGF-A Expression after 6 hours [4]	MVECs migration, direct activation by peptides [5] [folds]	KDR Expression after 6 hours [7]	also measured
LLADTTHHRPWT (Phage displayed peptide) [LT]	did not induce tube formation	3.07	2.25	1.6	1.2	+	+	+	3.5	+	−	increased number of blood vessels	18	3	78.275	−	−				
QPWLEQAYYSTF (Phage displayed peptide) [QF]	increased tube formation; also recorded: significant increase in tube formation	2.83	2	1.6	1.2	+	+	+	2.4	+	+	increased number of blood vessels	21	0.9	112.222	+	−	−	2.3		FLT-1 Expression after 6 hours [6]: −; Percent of blood perfusion ratio, ischemic/control limb (significance) [9]: significant increase
SAHGTSTGVPWP (Phage displayed peptide)	did not induce tube formation	2.85	2.25	1.75	1.6	+	+	+	2	+	+	increased number of blood vessels	15	1	84.478				2.1		EC tube formation under hypoxia ([1]; under hypoxia conditions, 18 hours): effective only in tube formation under hypoxia conditions
TLPWLEESYWRP (Phage displayed peptide) [TR]		3.05	2.5	1.6	1.4	+	+	+	2	+			15	5.5	86.006	+	+	−	2.6	+	Vascularization of mouse ear, histology sections ([8]; 10 μg, compared to control): large blood vessel formation and neovascularization
VPWMEPAYQRFL (Phage displayed peptide) [VL]	increased tube formation	2.75	2	1.6	1.4	+	+	+	2	+			14	5.6	95.560	+	+	+		+	
YPHIDSLGHWRR (Phage displayed peptide) [YR]	increased tube formation	2.75	2.5	1.4	1			+	2.4	+	+	increased number of blood vessels	11	7.6	104.349	−		−	1.8	−	FLT-1 Expression after 6 hours [6]: −; Percent of blood perfusion ratio, ischemic/control limb (significance) [9]: significant increase
